Structures can show the parent of a compound that is named as a salt.
Columns and labels:
Abelson 8.1 lymphoma = assay: Tumor Cell Cytotoxicity test (TCC test), Abelson 8.1 lymphoma; format: cell-based; settings: 5 μg, 72 hours; alkaline phosphatase assay
Experimental: (§1) As indicated above, all of the compounds of formula I are anti-tumor agents and are, therefore, useful in inhibiting the growth of various lymphomas, sarcomas, myelomas and leukemia cell lines.
(§2) In flat bottom microtiter plates (Nunc Roskilde, Denmark) were placed Abelson 8.1 lymphoma, YAC, L1210, P815, Meth A fibrosarcoma or fresh human neuroblastoma tumor cells in DMEM+10% fetal calf serum and the tumor cell-containing plates were incubated with 1,3 and 5 μg of the test compound for a period of 6 to 72 hours. The number of tumor cells present in the Abelson 8.1, YAC, L1210 and P815 assays was determined by measuring the alkaline phosphatase as follows:
(§3) The tumor cell plates were centrifuged (500×g) for ten minutes and the supernatant flicked off. Without further washing, 100 μl of buffer containing 20 μl of diethanolamine, 2 μM of MgCl2.6H2 O, 2.5 μM of p-nitrophenylphosphate and 10 mg Triton X-100 were added. The samples were incubated for 60 minutes at room temperature and the enzymatic reaction was terminated by the addition of 100 μl of 0.5N NaOH. The absorbance was then measured at 405 nm using a Titertek Multiskan apparatus.
(§4) At a concentration of 5 μg and an incubation period of 72 hours, the following results were obtained: […]

YAC = assay: Tumor Cell Cytotoxicity test (TCC test), YAC; format: cell-based; settings: 5 μg, 72 hours; alkaline phosphatase assay
Experimental: as §1, §2, §3, §4

L1210 = assay: Tumor Cell Cytotoxicity test (TCC test), L1210; format: cell-based; settings: 5 μg, 72 hours; alkaline phosphatase assay
Experimental: as §1, §2, §3, §4

P815 = assay: Tumor Cell Cytotoxicity test (TCC test), P815; format: cell-based; settings: 5 μg, 72 hours; alkaline phosphatase assay
Experimental: as §1, §2, §3, §4

Meth A fibrosarcoma = assay: Tumor Cell Cytotoxicity test (TCC test), Meth A fibrosarcoma; format: cell-based; settings: 5 μg, 72 hours; 3H-thymidine uptake
Experimental: as §1, §2
(§5) The number of tumor cells present in the Meth A fibrosarcoma and human neuroblastoma assays was measured by ^3 H-thymidine uptake as follows:
(§6) After 72 hours, the cells are thoroughly washed, and each well treated with ca. 0.1 μC ^3 H-thymidine. After 4-6 hours, the cells are collected using a commercial cell harvester, and the radioactivity in the […] is measured in a scintillation counter.
as §4

[1] = tested on: human neuroblastoma tumor cells; assay: Tumor Cell Cytotoxicity test (TCC test), fresh human neuroblastoma tumor cells; format: cell-based; settings: 5 μg, 72 hours; 3H-thymidine uptake
Experimental: as §1, §2, §5, §6, §4

Abelson 8.1 tumor cells = assay: Influence on Cytotoxicity of ET-18-OCH3 test; format: cell-based; settings: 5 μg test compound, 72 hours; mouse bone marrow cell macrophages preincubated with 10 μg ET-18-OCH3 for 24 hours; ET-18-OCH3 alone set at 100%
Experimental: Bone marrow cell macrophages (10^5 /well) obtained from [BALB/CX57/BL6 ]Fl mice were incubated with 10 μg of 1-octadecyl-2-methoxy-3-phosphoryl choline (ET-18-OCH3) for 24 hours in flat bottom microtiter plates (Nunc Roskilde, Denmark), after which time they are centrifuged and washed once. Abelson 8.1 tumor cells in DMEM+10% fetal calf serum and 1,3 and 5 μg of the test compound were then added to the plates. With the cytotoxicity of ET-18-OCH3 (10 μg) alone set at 100%, the inhibition or enhancement of the cytotoxic effect, as measured by an alkaline phosphatase assay, was determined and values recorded after 72 hours for 1, 3 and 5 .eta.g of the test substance. At a concentration of 5 μg, the following results were obtained: […]

Meth A sarcoma cells = assay: Meth A sarcoma implanted in CBF1 mice, tumor growth and survival; format: in vivo; settings: p.o., 50 μg, 28 days; 7.3×10^6 Meth A sarcoma cells implanted; no control animals survived
Text: Meth A fibrosarcoma cells were induced in BALB/C mice by administering methylcholanthrene according to the procedure of Old, et al. (L. J. Old, E. A. Boyse, D. A. Clarke, and E. Carswell, Ann. N.Y. Acad. Sci., 101, 80 (1962). These tumor cells were harvested from the peritoneal cavity 10 to 12 days after administration of methylcholanthrene. Ten CBF1 mice of 10-12 week age were each implanted with 7.3×10^6 Meth A sarcoma cells to serve as control. A second group of ten CBF1 mice were each implanted with 7.3×10^6 Meth A sarcoma cells and on day one after implant each mouse was treated p.o. with 5-50 μg of the test compound per day for a total of twenty or twenty-seven days. Tumor growth and survivors were assayed on days 7, 14, 21 and 28 after tumor implantation. Under these conditions, none of the control group animals survived, whereas 5 out of 10 animals which were administered 50 μg of the compound of Example 2 for 28 days survived and 8 out of 10 animals which were administered 50 μg of the compound of Example 5 for 28 days survived.

| Structure (SMILES) | % Inhibition Abel. (Abelson 8.1 lymphoma) | % Inhibition YAC (YAC) [%] | % Inhibition L1210 (L1210) [%] | % Inhibition P815 (P815) [%] | % Inhibition Meth A (Meth A fibrosarcoma) [%] | % Inhibition neuro. [1] [%] | % Enhancement (of the cytotoxic effect of ET-18-OCH3) (Abelson 8.1 tumor cells) [%] | animals survived (Meth A sarcoma cells) |
| --- | --- | --- | --- | --- | --- | --- | --- | --- |
| CCCCCCCCCCCCCCCCCCC1(COP(=O)([O-])OCC[N+](C)(C)C)CCC(=O)O1 (stereo not shown) [Example 2, 2-[hydroxy(tetrahydro)-2-(octadecyl-5-oxo-2-furanyl)methoxyphosphinyloxy]-N,N,N-trimethyl-ethanaminium hydroxide, inner salt-4-oxide] | 97% | 71 | 69 | 84 | 98 | 59 | 99.5 | 5 out of 10 |
| CCCCCCCCCCCCCCCCCCC1(COP(=O)([O-])OCC[N+](C)(C)C)CCOC1 (stereo not shown) [Example 7, 2-[(3-octadecyltetrahydro-3-furanylmethoxy)-hydroxyphosphinyloxy]-N,N,N-trimethyl ethanaminium hydroxide, inner salt-4-oxide] | 70-90% |  |  |  |  |  | 90 |  |
| CCCCCCCCCCCCCCCCCCOCC1(COP(=O)([O-])OCC[N+](C)(C)C)CCCO1 (stereo not shown) [Example 5, 2-[(2-octadecyloxymethyltetrahydro-2-furanylmethoxy)-hydroxyphoshphinyloxyl]-N,N,N-trimethylethanaminium hydroxide inner salt-4-oxide] | 98% | 96 |  |  |  |  | > 90 | 8 out of 10 |
| CCCCCCCCCCCCCCCCCCC1(COP(=O)([O-])OCC[N+](C)(C)C)COC(=O)C1 (stereo not shown) [Example 6, 2-[hydroxy(tetrahydro)-3-(octadecyl-5-oxo-3-furanyl)methoxyphosphinyloxy]-N,N,N-trimethyl ethanaminium hydroxide, inner salt-4-oxide] | 50-70% |  |  |  |  |  | 90 |  |

From patent US4673672A, “Substituted-[hydroxy(tetrahydro)-5-oxo-(2- and 3-furanyl or 2-thienyl)alkoxyphosphinyloxy]-alkanaminium hydroxide, inner salt oxides” (Sandoz Pharmaceuticals Corp., priority 1986, dated 1987)
